Biological target: T1, PA3944 (Pseudomonas aeruginosa, UniProt Q9HX72)
T1 construct: heterologous expression; N-terminal polyhistidine tag kept for kinetics, removed for crystallization; monomer in solution
Assay: X-ray crystal structure ([…] Å)
Assay type: binding
Settings: co-crystallized with 5 mM AcCoA, donor site

T1 sequence (Q9HX72 whole entry): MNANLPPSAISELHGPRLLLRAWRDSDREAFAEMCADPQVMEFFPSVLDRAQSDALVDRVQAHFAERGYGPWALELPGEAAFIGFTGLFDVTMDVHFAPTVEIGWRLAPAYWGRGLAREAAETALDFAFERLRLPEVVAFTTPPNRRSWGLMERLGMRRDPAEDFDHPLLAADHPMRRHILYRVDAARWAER

Row | Compound | X-ray crystal structure (1.80 Å) (AcCoA modeled in chain B) | X-ray crystal structure (1.80 Å) (CoA modeled in chain A)
1 | CC(=O)SCCNC(=O)CCNC(=O)[C@H](O)C(C)(C)COP(=O)(O)OP(=O)(O)OC[C@H]1O[C@@H](n2cnc3c(N)ncnc32)[C@H](O)[C@@H]1OP(=O)(O)O [AcCoA] | we modeled CoA in chain A and AcCoA in chain B | –
2 | CC(C)(COP(=O)(O)OP(=O)(O)OC[C@H]1O[C@@H](n2cnc3c(N)ncnc32)[C@H](O)[C@@H]1OP(=O)(O)O)[C@@H](O)C(=O)NCCC(=O)NCCS [CoA] | – | we modeled CoA in chain A and AcCoA in chain B

From PMC8072286, “Gcn5-Related N-Acetyltransferases (GNATs) With a Catalytic Serine Residue Can Play Ping-Pong Too” (Frontiers in Molecular Biosciences, 2021)
